Results on one compound are retold here after ChEMBL document CHEMBL1149899 (J Med Chem, 2008).

Assay [1] can be described thus: Binding affinity to yeast Hsp90 by isothermal titration calorimetry. Further details: species or system Saccharomyces cerevisiae. For orientation: In ITC the heat of successive injections is recorded.
Assay [2] is described as follows: Inhibition of ATPase activity of yeast Hsp90. Set-up: species or system Saccharomyces cerevisiae.

A word on the Kd: it is the equilibrium constant for the complex coming apart. A high value points to weaker binding. Broadly, the IC50 is the concentration at which inhibition is half-maximal. Low values mean greater potency in that assay, high ones weaker potency in that assay. Compound `COC1=C2C[C@@H](C)C[C@H](OC)[C@H](O)[C@@H](C)/C=C(\C)[C@H](OC(N)=O)[C@@H](OC)/C=C\C=C(/C)C(=O)NC(=CC1=O)C2=O` [GELDANAMYCIN] displayed a Kd in assay [1] of 1.2 µM. In assay [2], this compound had an IC50 of 7 µM.
